Tests used:
Format in all cases: in vivo
[1] = test system: C. rosea f. catenulata J1446 spores; assay: Percent germination of C. rosea f. catenulata J1446 on strawberry leaf discs; details: after 24 h on strawberry leaf discs; germinant added to Prestop® 0.025% (glycine betaine 0.06%/0.6%, yeast extract 0.04%/0.2%) vs Prestop® alone; FIG. 1
Method: (§1) Young strawberry plants (Fragaria×ananassa; “Merced” variety) were allowed to grow at least a week before plants were selected for experiments by healthy appearance and having large leaves facing upwards. Spore counts for C. rosea f. catenulata J1446 in the package of Prestop WG used were calculated via haemocytometer to be 1.4×10^10 spores/g and viability of the spores was checked using the MPN (most probably number) method and C. rosea f. catenulata J1446 was calculated to be 3×10^9 CFU/g. […] On average, 0.5 ml of treatment was calculated to be applied per plant. […] The number of spores obtained from each slip was counted using a hemocytometer to determine deposition rate. […]
On the same day, after spraying, two 6 mm leaf discs were cut using a sterilized staples hole punch from two different leaves per plant from five sprayed strawberry plants per treatment group per time period (6, 7, 8 and 24 h) and then dyed with 5 ul lactophenol cotton blue. […] Three viewing areas were chosen at random on each leaf disc and 100 spores were counted: the number that germinated (germ tubes visible at twice the length of the spore) out of that 100 was recorded. Average germination percentages were analyzed per treatment group and per time period.
Data for percent germination assays on strawberry leaves was normal when the distribution was analyzed for both greenhouse and environmental chamber studies. […]

[2] = test system: C. rosea f. catenulata J1446; assay: Hyphal growth of C. rosea f. catenulata J1446 from strawberry leaf discs onto agar plates (greenhouse); details: discs cut 1, 2, 3, 6 days after greenhouse incubation, growth on plate 6 days; germinant added to Prestop® 0.025%; FIG. 2
Method: as §1
Two 6 mm leaf discs were cut using a sterilized staples hole punch from two different leaves per plant from five sprayed plants per treatment per time period (1, 2, 3, and 6 days after spraying) and placed adaxial side downwards onto paraquat-chloramphenicol agar (PCA) medium (0.1 mL paraquat, 200 mg chloramphenicol, and 12 g agar per liter of water). […] Growth around the leaf disc was measured with a ruler and recorded as average diameter of growth per day. […] Averages in treatments were analyzed.
Data for growth bioassays from 1, 2, 3, and 6 days of greenhouse incubation were all normal when distribution was analysed. […] Multiple comparisons of the mean (alpha=0.05) were analysed using a Tukey post hoc test.

Botrytis cinerea = assay: Greenhouse control of Botrytis cinerea on tomato plants (Example 2); details: Prestop® 0.003% combined with glycine betaine 0.05% or 0.2%, 5 days, necrotic area width, FIG. 3
Method: Botrytis cinerea was grown on potato dextrose broth for 1 to 2 weeks without shaking. The resulting mycelial and spores were recovered to produce a liquid inoculum.
Tomato plants, variety Admiro (stage: 3-leaf), were sprayed with the B. cinerea inoculum (5000 sp/ml) then allowed to dry. Then, the treatments were applied by spraying the inoculated tomato plants.
The following treatments were tested (9 repetitions): (T1) Prestop® (C. rosea f. catenulatum J1446) 0.003%; (T2) Prestop® (C. rosea f. catenulatum J1446) 0.003%+glycine betaine (Intracell®, Lallemand) 0.05%; (T3) Prestop® (C. rosea f. catenulatum J1446) 0.003%+glycine betaine (Intracell®, Lallemand) 0.2%; (T4) glycine betaine (Intracell®, Lallemand) 0.2% and (T5) water.
Colby's equation was used to determine the effects expected from the components, as described above. The results were measured at 5 days after the application of the components.

[3] = test system: apple scab (Venturia inaequalis); assay: Apple scab foliar symptoms on potted Gala apple trees (Example 6)
Method: The trial was carried out on potted trees of the Gala variety. Six trees per treatment were reserved for this test.
Two application strategies were tested: (a) one application four days before pathogen inoculation; and (b) a first application four days before pathogen inoculation and a second application after pathogen inoculation when a cumulative of 300° C./hour was reached after the inoculation.
A solution of conidia of V. inaequalis was prepared from 2018 scabbed leaves stored in the freezer. The trees were kept under fog for at least one hour before contamination and then at least 12 hours afterwards. The duration was adapted according to ambient temperature and humidity. The spray volume was defined after a blank test to cover sufficient vegetation without reaching the runoff point (between 30 and 50 mL/tree). The treatments were applied using a hand-held sprayer and carried out four days before inoculation with the pathogen (strategies (a) and (b)) and within 300° C./H after inoculation for strategy (2) only.
The frequency and intensity of foliar symptoms of scab were observed. Observation was carried out four to five days after the start of the first spots, using a 0 to 4 rating scale. Trees were scored individually and were made on all the leaves of each tree.

## C[N+](C)(C)CC(=O)[O-] [glycine betaine]
[1]
  percentage of spore germination of C. rosea J1446: increased
[2]
  colonization of leaf discs by C. rosea J1446: significantly increased
Botrytis cinerea
  efficacy of Prestop® to control B. cinerea: increased
[3]; one application four days before inoculation + a second application after inoculation when a cumulative of 300° C./hour was reached
  Frequency of foliar symptoms of scab: 58.5%
[3]; one application four days before inoculation with the pathogen
  Frequency of foliar symptoms of scab: 59.6%

Source: patent publication US20220159969A1, “COMPOSITION AND METHOD FOR ENHANCING SPORE GERMINATION AND BIOLOGICAL EFFICACY” (priority 2019, published 2022)
